Data on 2 compounds can be found in paper PMC7738880, “Identification of novel CD44v6-binding peptides that block CD44v6 and deliver a pro-apoptotic peptide to tumors to inhibit tumor growth and metastasis in mice” (Theranostics, 2021).

By Kd is commonly meant the equilibrium constant for the complex coming apart.

The target of experiment [1] is T1, CD44v6 on MDA-MB231 cells (Homo sapiens, UniProt P16070).
T1 sequence (P16070 386-428 limits assumed): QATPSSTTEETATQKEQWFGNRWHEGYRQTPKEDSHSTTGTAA
The experiment is described as follows: Flow cytometric competition assays with anti-CD44v6 antibody. To be noted: for peptide binding to cells after pre-treatment with anti-CD44v6 antibody: MDA-MB231, antibody 5 µg/mL 1 h, FITC-labeled peptide 10 µM; for staining of CD44v6 with anti-CD44v6 antibody after pre-treatment with peptide: MDA-MB231, peptide 50 µM 1 h. Type of experiment: cell-based. On the procedure:
Cells (1 × 10^5 cells) were harvested and suspended in culture medium containing 1% BSA for 1 h, followed by an incubation with FITC-labeled peptides (25 µM) at 4 °C for 1 h. After washing, the cells were analyzed using a FACSCalibur flow cytometer (BD, Franklin Lakes, NJ). For competition assays, cells were incubated with 5 µg/mL of an anti-human CD44v6 mouse monoclonal antibody (clone no. VFF-18, 1:100 dilution; Abcam, Cambridge, MA) and anti-human CD44 monoclonal antibody (clone no. 156-3C11, 1:100 dilution; ThermoFisher Scientific) for 1 h to compete with peptide binding, followed by an incubation with FITC-labeled peptides (10 µM) before analysis on a flow cytometer (BD). In another set of assays, cells were incubated with peptides (50 µM) for 1 h to compete with antibody binding, followed by an incubation with 5 µg/mL of the anti-human CD44v6 mouse monoclonal antibody for 1 h, The cells were then incubated with an Alexa Fluor 488-labeled goat anti-mouse IgG secondary antibody (Merck) before analysis on a flow cytometer (BD).
Background: A flow cytometer gives signals particle by particle.

Experiment [2] deals with c-Met and Erk phosphorylation in 4T1 cells. The experiment is described as follows: Western blotting of HGF-induced c-Met and Erk phosphorylation, 4T1. The format is cell-based, mouse. Conditions: peptide pre-treatment 10 min, HGF 25 ng/mL 10 min. As to the method: (§1) To examine c-Met and Erk phosphorylation, MDA-MB231 cells were serum-starved for 24 h, pre-treated with CD44v6-binding peptides (20 µM) for 10 min, and incubated with 25 ng/mL HGF for 10 min. After the incubation, the cell lysates were subjected to Western blotting analyses using an anti-phospho-Met rabbit monoclonal antibody (clone no. D26; Cell Signaling Technology), anti-Met mouse monoclonal antibody (clone no. 25H2, 1:1000 dilution; Cell Signaling Technology), anti-phospho-Erk1/2 rabbit monoclonal antibody (clone no. 197G2; Cell Signaling Technology), and anti-ERK1 rabbit polyclonal antibody (1:1000 dilution; Santa Cruz Biotechnology). The labeled bands on immunoblots were detected using enhanced chemiluminescence reagents (ThermoFisher Scientific).
Supplementary Figure S3. NLN and NEW inhibit HGF-induced c-Met phosphorylation and cell migration and invasion in 4T1 breast tumor cells. (A) Western blotting analysis of c-Met and Erk phosphorylation in 4T1 cells pretreated or not with 5 μg/mL NLN and NEW for 10 min and treated with 25 ng/mL HGF for 10 min. (B) The quantification of c-Met and Erk […]
(1 picture or pasted object on this page, not shown here)
(In general: In western blotting, separated proteins are transferred to a membrane and probed.)

For experiment [3], the system named is c-Met in MDA-MB231 cells. The experiment is described as follows: HGF-induced c-Met internalization (confocal microscopy). Type of experiment: cell-based, human. To be noted: peptide pre-treatment 10 min, HGF 25 ng/mL 30 or 60 min. As to the method: To examine the internalization of CD44v6, 1 × 10^5 MDA-MB231 cells were seeded in each well of an 8-well chamber slide and cultured for 24 h. Next, the cells were incubated with a fresh culture medium containing FITC-labeled peptides (10 μM) at 37 °C for 10, 30, and 60 min and then stained with an anti-human CD44v6 mouse monoclonal antibody (clone no. VFF-7; Santa Cruz Biotechnology). The cells were then incubated with an Alexa Fluor 594-labeled goat anti-mouse IgG secondary antibody (Merck). To examine the internalization of c-Met, cells were incubated with recombinant human HGF at 25 ng/mL (R&D Systems, Minneapolis, MN) for 30 or 60 min with or without pre-treatment with peptides (20 µM) for 10 min. After incubation, the cells were stained with an anti-Met rabbit polyclonal antibody (clone no. C-28, 1:100 dilution; Santa Cruz Biotechnology). The cells were then incubated with an Alexa Fluor 594-labeled goat anti-rabbit IgG secondary antibody (Merck). For nuclear staining, the cells were incubated with DAPI and the ProLong antifade reagent before observation under a confocal microscope (Zeiss).

In experiment [4] the test system is CD44v6-high cells (MDA-MB231, 4T1, Panc-1) versus CD44v6-low MCF7 cells. The experiment is described as follows: Immunofluorescence microscopy and flow cytometry of FITC-peptide cell binding. Type of experiment: cell-based. To be noted: FITC-labeled peptide 25 µM, 4 °C, 1 h. As to the method:
Cells were seeded in each well of an 8-well chamber slide at a density of 1 × 10^5 cells per well, incubated overnight, and then treated with 1% BSA at room temperature for 1 h. Subsequently, the cells were incubated with FITC-conjugated peptides (25 µM) at 4 °C for 1 h, blocked with BSA, fixed, and incubated with an anti-human CD44v6 mouse monoclonal antibody (clone no. VFF-7, 1:100 dilution; Santa Cruz Biotechnology, Dallas, TX) or a rabbit anti-CD44v6 polyclonal antibody (1:100 dilution; Merck). The cells were then incubated with an Alexa Fluor 594-labeled goat anti-mouse IgG or goat anti-rabbit IgG secondary antibodies (Merck). After incubation, the cells were counterstained with 4ʹ,6-diamidino-2-phenylindole (DAPI, Sigma-Aldrich, St. Louis, MI), mounted with ProLong antifade reagent (Thermo Fischer Scientific), and observed under a confocal microscope (Zeiss, Jena, Germany).
Cells (1 × 10^5 cells) were harvested and suspended in culture medium containing 1% BSA for 1 h, followed by an incubation with FITC-labeled peptides (25 µM) at 4 °C for 1 h. After washing, the cells were analyzed using a FACSCalibur flow cytometer (BD, Franklin Lakes, NJ). […]

The test system of experiment [5] is c-Met and Erk phosphorylation in MDA-MB231 cells. Briefly: Western blotting of HGF-induced c-Met and Erk phosphorylation, MDA-MB231. Type of experiment: cell-based, human. Conditions: peptide 20 µM 10 min, HGF 25 ng/mL 10 min. As to the method: as §1
Experiment [6] deals with Panc-1 cells. The experiment is described as follows: Saturation cell binding assay, Panc-1. Conditions: biotin-labeled peptide 0-256 µM, 4 °C, 1 h. Details: species or system human. On the procedure: Supplementary Information
Supplementary Materials and Methods
Saturation binding assays to determine the cellular binding affinities of peptides Cells (5 × 10^3 cells per well in a 96-well plate) were incubated with 1% bovine serum albumin (BSA) for 30 min and with different concentrations of biotin-labeled peptides (0, 2, 4, 8, 16, 32, 64, 128, and 256 µM) at 4 °C for 1 h. After washing, the cells were incubated with horseradish peroxidase-conjugated neutravidin (1:10,000 dilution; ThermoFisher Scientific, Waltham, MA) for 30 min at room temperature. Enzymatic activity was detected using a 3,3ʹ,5,5ʹ-tetramethylbenzidine substrate (ThermoFisher Scientific), and the reaction was stopped using 2 M sulfuric acid. The absorbance at 450 nm was measured in each well using a microplate reader (Tecan, Mannedorf, Switzerland). The KD values were then calculated using GraphPad Prism 6 software (GraphPad Inc., La Jolla, CA). […]
10 µM biotin-labeled CD44v6-binding peptides at 4 °C for 1 h. […]
Scientific) for 30 min at room temperature. […]

Molecules are shown by their SMILES. Residues, ends and D or L forms follow the SMILES beside them.

With `CC[C@H](C)[C@H](NC(=O)[C@@H](NC(=O)[C@H](CC(N)=O)NC(=O)[C@H](CC(C)C)NC(=O)[C@H](CC(N)=O)NC(=O)[C@@H](N)CS)[C@@H](C)O)C(=O)N[C@@H](CC(=O)O)C(=O)N[C@H](C(=O)N[C@@H](CS)C(=O)O)[C@@H](C)O` [NLN] (H-CNLNTIDTC-OH; N-terminus and C-terminus assumed), in experiment [1], the “peptide binding to cells after pre-treatment with anti-CD44v6 antibody” value is recorded as “significantly inhibited” and the “staining of CD44v6 with anti-CD44v6 antibody after pre-treatment with peptide” value is reported as “inhibited”. Further, the “HGF-induced phosphorylation of c-Met and Erk, 4T1” value in experiment [2] is listed as “inhibited”. For the same compound, the “HGF-induced internalization of c-Met” value in experiment [3] is listed as “inhibited”. In experiment [4], the “cellular binding, CD44v6-high versus CD44v6-low cells” value is “bound selectively to CD44v6-high cells”. Also, the “HGF-induced phosphorylation of c-Met and Erk, MDA-MB231” value in experiment [5] was “inhibited”. In experiment [6], this compound registered a Kd of 8 ± 5 µM.
Turning to `CC(C)C[C@H](NC(=O)[C@H](CCC(N)=O)NC(=O)[C@H](Cc1c[nH]c2ccccc12)NC(=O)[C@H](CCC(=O)O)NC(=O)[C@H](CC(N)=O)NC(=O)[C@@H](N)CS)C(=O)N[C@@H](CCCCN)C(=O)N[C@@H](CO)C(=O)N[C@@H](CS)C(=O)O` [NEW] (H-CNEWQLKSC-OH; N-terminus and C-terminus assumed), in experiment [1], the “peptide binding to cells after pre-treatment with anti-CD44v6 antibody” value is “significantly inhibited” and the “staining of CD44v6 with anti-CD44v6 antibody after pre-treatment with peptide” value was “inhibited”. Further, in experiment [2], the “HGF-induced phosphorylation of c-Met and Erk, 4T1” value is reported as “inhibited”. Besides, the “HGF-induced internalization of c-Met” value in experiment [3] was “inhibited”. Moreover, the “cellular binding, CD44v6-high versus CD44v6-low cells” value in experiment [4] is “bound selectively to CD44v6-high cells”. The “HGF-induced phosphorylation of c-Met and Erk, MDA-MB231” value in experiment [5] is listed as “inhibited”. In experiment [6], the Kd came out at 7 ± 3 µM.
